Assay results: patent publication US8389523B2, “Substituted quinoxaline and an agrochemical composition thereof” (Kumiai Chemical Industry Co., Ltd., priority 2007, dated 2013)

Key:
[1] = system: Monochoria vaginalis (Burm. f.) Presl var. plantaginea (Roxb.) Solms-Laub.; test: Herbicidal effects in paddy field soil treatment (Test Example 1); assay type: in vivo; design: scale not given here; settings: for herbicidal effect (index) on Monochoria vaginalis (Burm. f.) Presl var. plantaginea (Roxb.) Solms-Laub.: paddy field soil treatment (Test Example 1), criteria of Table 138
Outline: (§1)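 Seeds sown in puddled paddy soil, waterlogged to 3 cm depth; next day a diluted wettable powder applied dropwise to the water surface at 1000 g active ingredient per hectare. Herbicidal effect scored 21 days after treatment in a greenhouse.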

[2] = system: Echinochloa oryzicola Vasing; test: as above; assay type: in vivo; design: scale not given here; settings: for herbicidal effect (index) on Echinochloa oryzicola Vasing: paddy field soil treatment (Test Example 1), criteria of Table 138
Outline: as §1

[3] = system: Scirpus juncoides Roxb. var. ohwianus. T. Koyama; test: as above; assay type: in vivo; design: scale not given here; settings: for herbicidal effect (index) on Scirpus juncoides Roxb. var. ohwianus. T. Koyama: paddy field soil treatment (Test Example 1), criteria of Table 138
Outline: as §1

[4] = system: Amaranthus viridis L.; test: Herbicidal effects in upland field soil treatment (Test Example 2); assay type: in vivo; design: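 grade 0 to 5 of growth suppression where 5 is 90% or more and 0 below 10%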; settings: 1000 g active ingredient per hectare, 21st day after treatment, criteria of Table 138
Outline: (§2)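 Pre-emergence test: seeds sown in upland soil, then soil surface sprayed with diluted wettable powder at 1000 g active ingredient per hectare (1000 liters per hectare). Greenhouse growth; herbicidal effect scored on day 21 against set criteria.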

[5] = system: Abutilon theophrasti medicus; test: as above; assay type: in vivo; design: scale not given here; settings: 1000 g active ingredient per hectare, 21st day after treatment, criteria of Table 138
Outline: as §2

[6] = system: Echinochloa crus-galli (L.) P. Beauv. var. crus-galli; test: Herbicidal effects in upland field foliar treatment (Test Example 3); assay type: in vivo; design: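 grade 0 to 5 of growth suppression where 5 is 90% or more and 0 below 10%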; settings: criteria of Table 138; for herbicidal effects on Echinochloa crus-galli (L.) P. Beauv. var. crus-galli: 1000 g of the active ingredient per hectare, 14th day after the treatment, wettable powder
Outline: (§3)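 Plants grown two weeks from seed in upland soil in a greenhouse, then sprayed overall with water-diluted wettable powder at 1000 L/ha delivering 1000 g active ingredient/ha. Herbicidal effect scored by rating criteria 14 days after treatment.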

[7] = system: Amaranthus viridis L.; test: as above; assay type: in vivo; design: scale not given here; settings: criteria of Table 138; for herbicidal effects on Amaranthus viridis L.: 1000 g of the active ingredient per hectare, 14th day after the treatment, wettable powder
Outline: as §3

[8] = system: Abutilon theophrasti medicus; test: as above; assay type: in vivo; design: scale not given here; settings: criteria of Table 138; for herbicidal effects on Abutilon theophrasti medicus: 1000 g of the active ingredient per hectare, 14th day after the treatment, wettable powder
Outline: as §3

[9] = paddy field soil treatment, 1000 g of the active ingredient per hectare, wettable powder added dropwise on water surface, 21st day after treatment
[10] = 1000 g active ingredient per hectare, 14th day after treatment

melting point [°C]	SMILES	Herbicidal effects index, Monochoria vaginalis (Burm. f.) Presl var. plantaginea (Roxb.) Solms-Laub. [1, 9]	Herbicidal effects index, Echinochloa oryzicola Vasing [2, 9]	Herbicidal effects index, Scirpus juncoides Roxb. var. ohwianus. T. Koyama [3, 9]	herbicidal effect (index) on Amaranthus viridis L. [4]	herbicidal effect (index) on Abutilon theophrasti medicus [5]	herbicidal effect (index) on Echinochloa crus-galli (L.) P. Beauv. var. crus-galli [6, 10]	herbicidal effect (index) on Amaranthus viridis L. [7, 10]	herbicidal effect (index) on Abutilon theophrasti medicus [8, 10]	herbicidal effect (index) on Monochoria vaginalis (Burm. f.) Presl var. plantaginea (Roxb.) Solms-Laub. [1]	herbicidal effect (index) on Echinochloa oryzicola Vasing [2]	herbicidal effect (index) on Scirpus juncoides Roxb. var. ohwianus. T. Koyama [3]	herbicidal effects on Echinochloa crus-galli (L.) P. Beauv. var. crus-galli [6]	herbicidal effects on Amaranthus viridis L. [7]	herbicidal effects on Abutilon theophrasti medicus [8]
191 to 192	Cn1c(=O)c(C(=O)C2=C(O)CCCC2=O)nc2ccccc21 [I-2, 3-(2-hydroxy-6-oxo-1-cyclohexenecarbonyl)-1-methylquinoxalin-2(1H)-one]	5	4	5	5	5	4	5	5	–	–	–	–	–	–
–	CC1(C)CC(=O)C(C(=O)c2cnc3ccccc3n2)=C(O)C1 [comparative compound C, reference compound]	–	–	–	3	0	–	–	–	2	1	1	0	0	4
–	CC1(C)CCC(=O)C(C(=O)c2cnc3ccccc3n2)=C1O [comparative compound D, reference compound]	–	–	–	3	0	–	–	–	4	1	2	0	1	4
